How the values were obtained:
tubulin = assay: Inhibition of tubulin polymerization; format: biochemical; conditions: for fold less active than 5t as inhibitor of tubulin assembly: relative to 5t
[1] = tested on: L1210, FM3A, Molt4, CEM, and HeLa cell lines; assay: Antiproliferative activity, panel of five tumor cell lines; format: cell-based; conditions: on average over the cell lines
L1210 = assay: Antiproliferative activity, L1210 cell line; format: cell-based; conditions: Mus musculus, L1210, read-out: IC50 L1210

## Nc1nc(Nc2ccccc2)sc1C(=O)c1ccccc1 [5a]
tubulin
  fold less active than 5t as inhibitor of tubulin assembly: 5 fold

## COc1cccc(Nc2nc(N)c(C(=O)c3ccccc3)s2)c1 [5f]
tubulin
  fold less active than 5t as inhibitor of tubulin assembly: 10 fold

## COc1cc(C(=O)c2sc(Nc3ccc(F)cc3)nc2N)cc(OC)c1OC [5r]
[1]
  average fold reduction of potency relative to 5q (cell growth inhibition): 27 fold

## COc1cc(C(=O)c2sc(Nc3ccc(C)cc3)nc2N)cc(OC)c1OC [5t]
tubulin; relative to 4a
  times more potent than 4a (tubulin assembly): 5 times
tubulin; relative to CA-4
  times more potent than CA-4 (tubulin assembly): 2 times

## COc1ccc(Nc2nc(N)c(C(=O)c3cc(OC)c(OC)c(OC)c3)s2)cc1 [5u]
[1]
  average fold reduction of potency relative to 5q (cell growth inhibition): 83 fold

## COc1cc(C(=O)c2sc(Nc3ccc(Cl)cc3)nc2N)cc(OC)c1OC [5s]
[1]
  average fold reduction of potency relative to 5q (cell growth inhibition): 27 fold

## COc1ccc(/C=C\c2cc(OC)c(OC)c(OC)c2)cc1O [CA-4, combretastatin A-4]
L1210
  IC50: 2.8 ± 1.1 nM

Source: PMC2762271 (Journal of medicinal chemistry, 2009)
